Among the data in patent publication US8003649B2 (AstraZeneca AB, priority 2007, dated 2011) are DC50 values, retold here.

This experiment concerns the target T1, Androgen Receptor (AR) (Homo sapiens, UniProt P10275, T878A).
T1 construct: cell based immuno-fluorescence assay using the LNCaP prostate epithelial cell line; endogenous in cells; host or cells: LNCaP clone FGC (ATCC CRL-1740)
T1 sequence (P10275 1-920 T878A): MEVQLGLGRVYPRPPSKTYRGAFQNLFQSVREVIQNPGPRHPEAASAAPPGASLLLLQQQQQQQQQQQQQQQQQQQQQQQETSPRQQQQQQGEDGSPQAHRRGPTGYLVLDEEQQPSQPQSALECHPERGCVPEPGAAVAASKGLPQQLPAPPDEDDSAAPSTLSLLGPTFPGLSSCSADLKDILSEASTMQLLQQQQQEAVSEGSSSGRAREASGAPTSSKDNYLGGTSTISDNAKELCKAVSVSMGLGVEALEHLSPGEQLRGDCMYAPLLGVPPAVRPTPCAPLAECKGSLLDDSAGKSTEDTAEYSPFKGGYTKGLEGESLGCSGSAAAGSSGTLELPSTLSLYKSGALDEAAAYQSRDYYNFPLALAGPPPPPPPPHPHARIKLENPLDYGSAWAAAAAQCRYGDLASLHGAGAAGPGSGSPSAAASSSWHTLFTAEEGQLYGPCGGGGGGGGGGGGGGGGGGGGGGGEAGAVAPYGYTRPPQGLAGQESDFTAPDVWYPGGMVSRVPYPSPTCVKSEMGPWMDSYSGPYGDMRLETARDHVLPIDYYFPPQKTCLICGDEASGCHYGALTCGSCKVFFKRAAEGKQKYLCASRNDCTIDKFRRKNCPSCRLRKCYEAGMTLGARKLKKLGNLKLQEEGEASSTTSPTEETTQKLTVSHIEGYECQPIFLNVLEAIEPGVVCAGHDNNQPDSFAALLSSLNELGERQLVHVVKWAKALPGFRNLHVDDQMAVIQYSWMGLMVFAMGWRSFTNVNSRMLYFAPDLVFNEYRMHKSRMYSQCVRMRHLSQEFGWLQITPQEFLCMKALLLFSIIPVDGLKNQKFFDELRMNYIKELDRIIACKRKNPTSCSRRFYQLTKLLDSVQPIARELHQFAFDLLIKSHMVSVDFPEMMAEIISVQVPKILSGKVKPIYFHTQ
The experiment can be described thus: LNCaP Androgen Receptor Down-regulation Cell Assay (immunofluorescence end point). To be noted: LNCaP prostate carcinoma cells, compound incubation 20-22 hours, 50% reduction of the AR signal; read-out: Androgen Receptor Down-regulation Assay (a) IC50/μM. The format is cell-based. In outline:
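AR loss reported as IC50 from curve fits of fluorescence dose-response data, with AR immunostained and read by laser-scanning cytometry. Compound exposure was 20-22 h at 37° C in LNCaP cells grown in 5% charcoal-stripped FBS and plated overnight beforehand.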
For the compound `FC(F)(F)c1nnc2ccc(N3CC4CN(Cc5cnccc5Cl)CC4C3)nn12` (stereo not drawn) [Example 800], the DC50 was determined as 1.1 µM.

Consider `COc1ccncc1CN1CC2CN(c3ccc4nnc(C(F)(F)F)n4n3)CC2C1` (stereo not drawn) [Example 803], for which the DC50 was 7 µM.

As to `FC(F)(F)c1ncccc1CN1CC2CN(c3ccc4nnc(C(F)(F)F)n4n3)CC2C1` (stereo not drawn) [Example 805], the DC50 worked out at 1 µM.

For the compound `COc1cccc(OC2CCN(c3ccc4nnc(C(F)(F)F)n4c3)CC2)c1` [Example 806, 6-[4-(3-methoxyphenoxy)piperidin-1-yl]-3-(trifluoromethyl)[1,2,4]triazolo[4,3-a]pyridine], the DC50 amounted to 2.3 µM.

For the compound `FC(F)(F)c1nnc2ccc(N3CCN(Cc4c[nH]c5ccccc45)CC3)cn12` [Example 807], the DC50 amounted to 7.5 µM.

On to `Fc1ccc2[nH]cc(CN3CCN(c4ccc5nnc(C(F)(F)F)n5c4)CC3)c2c1` [Example 808], for which the DC50 was 1 µM.

With `Fc1ccc(C(F)F)c(CN2CCN(c3ccc4nnc(C(F)(F)F)n4c3)CC2)c1` [Example 810, 6-[4-[2-(difluoromethyl)-5-fluorobenzyl]piperazin-1-yl]-3-(trifluoromethyl)[1,2,4]triazolo[4,3-a]pyridine], the DC50 amounted to 1.9 µM.

In the case of `Fc1cc(Cl)cc(CN2CCN(c3ccc4nnc(C(F)F)n4n3)CC2)c1` [Example 813], the DC50 is 6.8 µM.

Turning to `Fc1ccc(Cl)c(CN2CCN(c3ccc4nnc(C(F)F)n4n3)CC2)c1` [Example 815], the DC50 is greater than 17 µM.

Regarding `Fc1cc(CN2CCN(c3ccc4nnc(C(F)F)n4n3)CC2)cc(F)c1F` [Example 818], the DC50 is 3.8 µM.

On to `CS(=O)(=O)c1ccc(F)cc1CN1CCN(c2ccc3nnc(C(F)F)n3n2)CC1` [Example 819], for which the DC50 is greater than 18 µM.

With `Fc1cccc(CN2CCN(c3ccc4nnc(C(F)F)n4n3)CC2)c1Cl` [Example 822], the DC50 was determined as 1.7 µM.

Turning to `Fc1ccc(CN2CCN(c3ccc4nnc(C(F)F)n4n3)CC2)c(F)c1F` [Example 823], the DC50 came to 4.7 µM.

`FC(F)c1ccccc1CN1CCN(c2ccc3nnc(C(F)F)n3n2)CC1` [Example 824, 3-(difluoromethyl)-6-[4-[2-(difluoromethyl)benzyl]piperazin-1-yl][1,2,4]triazolo[4,3-b]pyridazine]: the DC50 came out at 1.9 µM.

In the case of `FC(F)c1cccc(CN2CCN(c3ccc4nnc(C(F)F)n4n3)CC2)c1` [Example 825, 3-(difluoromethyl)-6-[4-[3-(difluoromethyl)benzyl]piperazin-1-yl][1,2,4]triazolo[4,3-b]pyridazine], the DC50 stood at 1.9 µM.

On to `FC(F)c1ccc(CN2CCN(c3ccc4nnc(C(F)F)n4n3)CC2)cc1` [Example 826, 3-(difluoromethyl)-6-[4-[4-(difluoromethyl)benzyl]piperazin-1-yl][1,2,4]triazolo[4,3-b]pyridazine], for which the DC50 was 1.4 µM.

`FC(F)c1ccc(CN2CCN(c3ccc4nnc(C(F)(F)F)n4n3)CC2)cc1` [Example 827, 6-[4-[4-(difluoromethyl)benzyl]piperazin-1-yl]-3-(trifluoromethyl)[1,2,4]triazolo[4,3-b]pyridazine]: the DC50 came out at 1 µM.

Take `C[C@@H]1CN(c2ccc3nnc(C(F)(F)F)n3n2)CCN1Cc1ccncc1` [Example 828, 6-[(3R)-3-methyl-4-(pyridin-4-ylmethyl)piperazin-1-yl]-3-(trifluoromethyl)[1,2,4]triazolo[4,3-b]pyridazine]: the DC50 is 9.5 µM.

On to `C[C@@H]1CN(c2ccc3nnc(C(F)(F)F)n3n2)CCN1Cc1cccc(Br)n1` [Example 830], for which the DC50 came out at 0.85 µM.

On to `C[C@@H]1CN(c2ccc3nnc(C(F)(F)F)n3n2)CCN1Cc1cccnc1Cl` [Example 832], for which the DC50 was 1.4 µM.

Take `C[C@@H]1CN(c2ccc3nnc(C(F)(F)F)n3n2)CCN1Cc1ccc(Cl)nc1` [Example 833]: the DC50 is greater than 12 µM.

With `C[C@@H]1CN(c2ccc3nnc(C(F)(F)F)n3n2)CCN1Cc1cc(Br)cnc1F` [Example 835], the DC50 was 20 µM.

As to `N#Cc1ccc(CN2CC3CN(c4ccc5nnc(C(F)(F)F)n5n4)CC3C2)cn1` (stereo not drawn) [Example 837, 5-[[5-[3-(trifluoromethyl)[1,2,4]triazolo[4,3-b]pyridazin-6-yl]hexahydropyrrolo[3,4-c]pyrrol-2(1H)-yl]methyl]pyridine-2-carbonitrile], the DC50 came to 1.6 µM.

Turning to `N#Cc1ccc(CN2CCN(c3ccc4nnc(C(F)(F)F)n4n3)CC2)cn1` [Example 838, 5-[[4-[3-(trifluoromethyl)[1,2,4]triazolo[4,3-b]pyridazin-6-yl]piperazin-1-yl]methyl]pyridine-2-carbonitrile], the DC50 amounted to 7.6 µM.

As to `Fc1ccc(CN2[C@@H]3CC[C@H]2CN(c2ccc4nnc(C(F)(F)F)n4n2)C3)cc1` [Example 839], the DC50 stood at 1.1 µM.

With `N#Cc1cccc(CN2[C@@H]3CC[C@H]2CN(c2ccc4nnc(C(F)(F)F)n4n2)C3)c1` [Example 840], the DC50 amounted to 2.6 µM.

For the compound `N#Cc1ccc(CN2[C@@H]3CC[C@H]2CN(c2ccc4nnc(C(F)(F)F)n4n2)C3)cc1` [Example 841], the DC50 came to 2.9 µM.

Consider `Fc1cccc(CN2CCN(c3ccc4nnc(C(F)(F)F)n4n3)CC(F)(F)C2)c1` [Example 842], for which the DC50 was found to be 1.1 µM.

For `N#Cc1ccc(CN2CCN(c3ccc4nnc(C(F)(F)F)n4n3)CC(F)(F)C2)cc1` [Example 843], the DC50 was found to be 0.93 µM.

As to `N#Cc1cccc(CN2CCN(c3ccc4nnc(C(F)(F)F)n4n3)CC(F)(F)C2)c1` [Example 844], the DC50 came out at 0.78 µM.

As to `FC(F)(F)c1nnc2ccc(N3CCN(c4ccc(OCCn5ccnc5)cc4)CC3)nn12` [Example 845, 6-[4-[4-[2-(1H-imidazol-1-yl)ethoxy]phenyl]piperazin-1-yl]-3-(trifluoromethyl)[1,2,4]triazolo[4,3-b]pyridazine], the DC50 was 0.9 µM.

For `FC(F)(F)c1nnc2ccc(N3CCC(c4ccc(OCCn5ccnc5)cc4)CC3)nn12` [Example 846, 6-[4-[4-[2-(1H-imidazol-1-yl)ethoxy]phenyl]piperidin-1-yl]-3-(trifluoromethyl)[1,2,4]triazolo[4,3-b]pyridazine], the DC50 stood at 0.27 µM.

For the compound `N#Cc1cnn(CCOc2ccc(N3CCN(c4ccc5nnc(C(F)(F)F)n5n4)CC3)cc2)c1` [Example 848, 1-[2-[4-[4-[3-(trifluoromethyl)[1,2,4]triazolo[4,3-b]pyridazin-6-yl]piperazin-1-yl]phenoxy]ethyl]-1H-pyrazole-4-carbonitrile], the DC50 is 3.5 µM.

For `FC(F)(F)c1nnc2ccc(N3CCC(c4ccc(OCCn5cccn5)cc4)CC3)nn12` [Example 849, 6-[4-[4-[2-(1H-pyrazol-1-yl)ethoxy]phenyl]piperidin-1-yl]-3-(trifluoromethyl)[1,2,4]triazolo[4,3-b]pyridazine], the DC50 was 0.68 µM.

In the case of `N#Cc1cnn(CCOc2ccc(C3CCN(c4ccc5nnc(C(F)(F)F)n5n4)CC3)cc2)c1` [Example 850], the DC50 amounted to 0.56 µM.

`COCCN(C)C(=O)COc1ccc(C2CCN(c3ccc4nnc(C(F)(F)F)n4n3)CC2)cc1` [Example 851, N-(2-methoxyethyl)-N-methyl-2-[4-[1-[3-(trifluoromethyl)[1,2,4]triazolo[4,3-b]pyridazin-6-yl]piperidin-4-yl]phenoxy]acetamide]: the DC50 is 0.92 µM.
